The supplement of paper PMC10307832

compound: C[C@@]1(C(=O)Nc2ccc(F)nc2)CCCN1c1nc(Nc2cc(C3CC3)n[nH]2)c2cccn2n1 + Cc1nc(Nc2ncc(C(=O)Nc3c(C)cccc3Cl)s2)cc(N2CCN(CCO)CC2)n1 [Dasatinib] (partner 0.075 µM); experiment: relative viability (nuclei count vs DMSO), 5 days (fraction); higher = more cells survive; settings: first compound 1.265 µM
In short: (§1)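 Lung cancer cell lines in 1536-well plates got either a single drug or a fixed anchor-drug dose together with five library-drug doses (not always all listed) in √10 steps, by pin tool, on the day after seeding. Nuclei were counted after 5 days, and relative viability is the treated-to-vehicle ratio of nuclei counts. Values are medians of duplicate plates.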

Row | Cell Line | relative viability
1 | NCI-H1437 | 0.125
2 | NCI-H1755 | 0.171
3 | NCI-H2023 | 0.105
4 | HCC-15 | 0.297
5 | PC-14 | 0.0823
6 | EKVX | 0.294
7 | LC-2-ad | 0.196
8 | NCI-H1975 | 0.154
9 | RERF-LC-KJ | 0.385

compound: C[C@@]1(C(=O)Nc2ccc(F)nc2)CCCN1c1nc(Nc2cc(C3CC3)n[nH]2)c2cccn2n1 + CC(C)C[C@H](NC(=O)[C@H](Cc1ccccc1)NC(=O)c1cnccn1)B(O)O [Bortezomib] (partner 0.002 µM); experiment: as above; settings: first compound 0.04 µM
In short: as §1

Row | Cell Line | relative viability
10 | ChaGo-K-1 | 1.01
11 | NCI-H2405 | 1
12 | HOP-62 | 0.752
13 | LU99A | 0.984
14 | BEN | 1.11
15 | HARA | 1.11
16 | HCC-78 | 0.445
17 | NCI-H322M | 1.22
18 | LCLC-97TM1 | 0.637
19 | NCI-H2009 | 1.13
20 | A-427 | 1
21 | NCI-H441 | 0.567
22 | NCI-H661 | 0.924
23 | NCI-H1734 | 0.856
24 | NCI-H460 | 1.13
25 | NCI-H2347 | 1.05
26 | SK-LU-1 | 1.06
27 | 201T | 1.1
28 | NCI-H1915 | 1.06

Row | Cell Line | relative viability
29 | HCC-827 | 1.07
30 | LXF-289 | 1.01
31 | NCI-H23 | 0.642
32 | NCI-H647 | 1.15
33 | CAL-12T | 1.12
34 | NCI-H1651 | 0.956
35 | EPLC-272H | 0.859
36 | NCI-H2228 | 1.25
37 | NCI-H1355 | 1.15
38 | NCI-H3122 | 0.993
39 | NCI-H1437 | 0.398
40 | NCI-H1755 | 0.957
41 | NCI-H2023 | 0.912
42 | HCC-15 | 0.943
43 | PC-14 | 0.846
44 | EKVX | 1.01
45 | LC-2-ad | 1.06
46 | NCI-H1975 | 0.344
47 | RERF-LC-KJ | 0.919

same assay, conditions: first compound 0.1265 µM

Row | Cell Line | relative viability
48 | ChaGo-K-1 | 0.797
49 | NCI-H2405 | 0.682
50 | HOP-62 | 0.67
51 | LU99A | 0.837
52 | BEN | 0.785
53 | HARA | 1.12
54 | HCC-78 | 0.855
55 | NCI-H322M | 0.894
56 | LCLC-97TM1 | 0.189
57 | NCI-H2009 | 1.17
58 | A-427 | 0.995
59 | NCI-H441 | 0.285
60 | NCI-H661 | 1.08
61 | NCI-H1734 | 0.781
62 | NCI-H460 | 0.991
63 | NCI-H2347 | 0.654
64 | SK-LU-1 | 1.03
65 | 201T | 0.958
66 | NCI-H1915 | 0.95

Row | Cell Line | relative viability
67 | HCC-827 | 1.03
68 | LXF-289 | 0.929
69 | NCI-H23 | 0.44
70 | NCI-H647 | 0.9
71 | CAL-12T | 0.826
72 | NCI-H1651 | 0.871
73 | EPLC-272H | 0.78
74 | NCI-H2228 | 0.731
75 | NCI-H1355 | 1.04
76 | NCI-H3122 | 1.03
77 | NCI-H1437 | 0.521
78 | NCI-H1755 | 0.838
79 | NCI-H2023 | 0.821
80 | HCC-15 | 0.742
81 | PC-14 | 0.715
82 | EKVX | 1.05
83 | LC-2-ad | 0.845
84 | NCI-H1975 | 0.34
85 | RERF-LC-KJ | 0.872

same assay, conditions: first compound 0.4 µM

Row | Cell Line | relative viability
86 | ChaGo-K-1 | 1.1
87 | NCI-H2405 | 0.835
88 | HOP-62 | 0.704
89 | LU99A | 0.623
90 | BEN | 0.815
91 | HARA | 0.684
92 | HCC-78 | 0.293
93 | NCI-H322M | 1.06
94 | LCLC-97TM1 | 0.132
95 | NCI-H2009 | 0.931
96 | A-427 | 0.897
97 | NCI-H441 | 0.276
98 | NCI-H661 | 0.653
99 | NCI-H1734 | 0.641
100 | NCI-H460 | 0.892
101 | NCI-H2347 | 0.916
102 | SK-LU-1 | 0.93
103 | 201T | 1.01
104 | NCI-H1915 | 0.952

Row | Cell Line | relative viability
105 | HCC-827 | 0.971
106 | LXF-289 | 0.961
107 | NCI-H23 | 0.472
108 | NCI-H647 | 0.706
109 | CAL-12T | 0.957
110 | NCI-H1651 | 0.864
111 | EPLC-272H | 0.702
112 | NCI-H2228 | 0.835
113 | NCI-H1355 | 0.948
114 | NCI-H3122 | 1.04
115 | NCI-H1437 | 0.328
116 | NCI-H1755 | 0.85
117 | NCI-H2023 | 0.62
118 | HCC-15 | 0.881
119 | PC-14 | 0.674
120 | EKVX | 0.796
121 | LC-2-ad | 0.805
122 | NCI-H1975 | 0.299
123 | RERF-LC-KJ | 0.907

same assay, conditions: first compound 1.265 µM

Row | Cell Line | relative viability
124 | ChaGo-K-1 | 0.824
125 | NCI-H2405 | 0.896
126 | HOP-62 | 1.02
127 | LU99A | 0.445
128 | BEN | 0.903
129 | HARA | 1.05
130 | HCC-78 | 0.317
131 | NCI-H322M | 1.1
132 | LCLC-97TM1 | 0.0641
133 | NCI-H2009 | 0.875
134 | A-427 | 1.01
135 | NCI-H441 | 0.463
136 | NCI-H661 | 0.819
137 | NCI-H1734 | 0.577
138 | NCI-H460 | 0.93
139 | NCI-H2347 | 0.765
140 | SK-LU-1 | 0.884
141 | 201T | 0.957
142 | NCI-H1915 | 1.01

Row | Cell Line | relative viability
143 | HCC-827 | 0.926
144 | LXF-289 | 1
145 | NCI-H23 | 0.442
146 | NCI-H647 | 0.791
147 | CAL-12T | 0.734
148 | NCI-H1651 | 0.825
149 | EPLC-272H | 0.878
150 | NCI-H2228 | 0.751
151 | NCI-H1355 | 0.969
152 | NCI-H3122 | 0.944
153 | NCI-H1437 | 0.276
154 | NCI-H1755 | 0.881
155 | NCI-H2023 | 0.244
156 | HCC-15 | 1
157 | PC-14 | 0.799
158 | EKVX | 0.926
159 | LC-2-ad | 0.411
160 | NCI-H1975 | 0.308
161 | RERF-LC-KJ | 0.878
